Experimental data as given in patent US6083741A, “Internalisation of DNA, using conjugates of poly-l-lysine and an integrin receptor ligand” (Imperial College of Science Technology and Medicine, priority 1994, dated 2000).

Key:
[1] = system: (Caco-2) colonic epithelial cells; assay: Luciferase reporter gene (pGL2) internalisation and expression in Caco-2 cells; type: cell-based; conditions: 5 μg pGL2 plasmid
Description: (§1) 5 μg of a luciferase reporter gene plasmid (pGL2 promega) was complexed with either the RGD-polylysine construct (possible structure of complex is shown in FIG. 1) or an equal concentration of polylysine in 100 μl of Optimem media (Gibco). The DNA/peptide complexes and also a DNA only control were then applied to 50% confluent cultured (Caco-2) colonic epithelial cells which were then allowed to express for 48 hours. The cells were then harvested and the cellular protein analysed for luciferase activity (Relative Light Units). The activity shown in FIG. 2 is adjusted to represent activity from 1 mg of cellular protein. In FIG. 2 the term "RGD peptide" is used to indicate the polylysine-integrin receptor binding protein described in Example 1.
The procedure described in Example 2 was repeated but using the polylysine-integrin receptor binding peptide described in Example 3 instead of the polylysine-integrin receptor binding peptide described in Example 1. Control experiments were also performed.
The polylysine-integrin receptor binding peptide of Example 1 was used in a repeat of the procedure of Example 2, but using 1 μg of luciferase reporter gene plasmid. The effect of chloroquine was also investigated.

[2] = system: COS-7 cells; assay: Luciferase reporter gene transfection of COS-7 cells; type: cell-based; conditions: 200 μm chloroquine
Description: as §1
The polylysine-integrin receptor binding peptide of Example 1 was again used. Essentially the methodology of Example 2 was followed with the substitution of COS-7 cells, and the use of different concentrations of chloroquine. It can be seen that 200 μm chloroquine gave a 4-fold increase of expression, compared with no chloroquine.
The methodology of Example 2 was repeated using COS-7 cells. In this experiment, different ratios of the K16 RGD peptide DNA were used with and without 100 μm chloroquine, with the results shown in FIG. 7. It can be seen that the optimum ratio was 37.5:1 in both the absence and presence of chloroquine.

| Molecule | improvement of expression by addition of chloroquine ([1]; 100 μM chloroquine vs no chloroquine) [fold] | optimal peptide-DNA transfection efficiency (luciferase activity, Relative Light Units per mg cellular protein) ([1]; absence of chloroquine, 48 hours expression, indirect comparison of FIG. 2 and FIG. 3) | cytopathic effects [2] |
| --- | --- | --- | --- |
| (K)16 GGCRGDMFGCA [Example 3] | ~2 | ~6×10^7 RLU/mg | – |
| CCN(CC)CCCC(C)Nc1ccnc2cc(Cl)ccc12 (stereo not drawn) [chloroquine] | – | – | cytopathic effects of chloroquine were apparent |
